Assay results: patent US20240059688A1, “CONOLIDINE ANALOGUES AS SELECTIVE ACKR3 MODULATORS FOR THE TREATMENT OF CANCER” (Luxembourg Institute of Health (LIH), priority 2020, published 2024)

Experiments:
Format in all cases: cell-based
DOR = DOR (Homo sapiens, UniProt P41143); assay: DOR calcium mobilization agonist/antagonist screen (CHO-RD-HGA16 cells); set-up: host or cells: CHO-RD-HGA16; conditions: single concentration; for Emax: CHO-RD-HGA16, agonist screen, control agonist DPDPE; for DOR Calcium % DPDPE Inhibition: antagonist screen, vs EC60 of DPDPE
DOR, sequence (P41143 whole entry): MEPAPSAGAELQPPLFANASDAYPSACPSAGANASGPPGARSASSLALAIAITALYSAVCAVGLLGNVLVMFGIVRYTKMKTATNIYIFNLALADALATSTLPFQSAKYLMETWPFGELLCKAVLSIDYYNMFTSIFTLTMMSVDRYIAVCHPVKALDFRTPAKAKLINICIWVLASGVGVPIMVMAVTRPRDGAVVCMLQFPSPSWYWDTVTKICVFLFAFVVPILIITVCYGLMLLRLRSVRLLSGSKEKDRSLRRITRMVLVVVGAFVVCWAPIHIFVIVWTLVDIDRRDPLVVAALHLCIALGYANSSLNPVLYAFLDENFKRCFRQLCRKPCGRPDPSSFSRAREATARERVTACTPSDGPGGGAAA
Protocol: (§1) Compounds were evaluated for kappa (KOR), mu (MOR), and delta (DOR) opioid receptor agonist and antagonist activity in three individual cell lines overexpressing Gαq16 (CHO-RD-HGA16, Molecular Devices) and the human kappa, mu, and delta opioid receptors, respectively. The day before the assay, cells were plated into 96-well black-walled assay plates at 30,000 cells/well in Ham's F12 supplemented with 10% fetal bovine serum, and 100 units of penicillin and streptomycin. The cells were incubated overnight at 37° C., 5% CO2. Prior to the assay, Calcium 5 dye (Molecular Devices) was reconstituted according to the manufacturer's instructions. The reconstituted dye was diluted 1:40 in pre-warmed (37° C.) assay buffer (1×HBSS, 20 mM HEPES, 2.5 mM probenecid, pH 7.4 at 37° C.). Growth medium was removed and the cells were gently washed with 100 μL of pre-warmed (37° C.) assay buffer. The cells were incubated for 45 minutes at 37° C., 5% CO2 in 200 μL of the diluted Calcium 5 dye. For the agonist screen, a single concentration of each test compound and receptor-specific controls (U69,593, DAMGO, and DPDPE for KOR, MOR, and DOR, respectively) were prepared at 10× the desired final concentration in 1% DMSO/assay buffer, aliquoted into a 96-well polystyrene plate, and warmed to 37° C. After the dye-loading incubation period, pretreatment solution was added to each well (25 μL of 9% DMSO/assay buffer) and, after 15 min, the plate was read with a FlexStation II (Molecular Devices). Calcium-mediated changes in fluorescence were monitored every 1.52 seconds over a 60 second time period, with the FlexStation II adding 50 μL of test compounds at the 19 second time point (excitation at 485 nm, detection at 525 nm). Peak kinetic reduction (SoftMax, Molecular Devices) relative fluorescence units (RFU) were used to calculate % control agonist Emax with the equation % Emax=(test compound RFU/control agonist RFU)×100. For the antagonist screens, the same procedure was followed except that the pretreatment solution consisted of the test compounds (prepared at […] the desired final concentration in 9% DMSO/assay buffer) and the FlexStation added the EC60 concentration (prepared at 10× the desired final concentration in 1% DMSO/assay buffer) of each respective control agonist. Peak RFU were used to calculate % control EC60 inhibition with the equation % inhibition=((EC60 RFU−test compound RFU)/EC60 RFU)×100. When IC50 determinations were made, the same antagonist screen procedure was followed except that cells were pretreated with 8-pt concentration-response curves of the test compounds. Peak RFU were plotted against the log of compound concentration using non-linear regression analysis to generate IC50 values (GraphPad Prism). Each test sample was analyzed in duplicate in two independent experiments.

MOR = MOR (Homo sapiens, UniProt P35372); assay: MOR calcium mobilization agonist/antagonist screen (CHO-RD-HGA16 cells); set-up: host or cells: CHO-RD-HGA16; conditions: single concentration; for Emax: CHO-RD-HGA16, agonist screen, control agonist DAMGO; for MOR Calcium % DAMGO Inhibition: antagonist screen, vs EC60 of DAMGO
MOR, sequence (P35372 whole entry): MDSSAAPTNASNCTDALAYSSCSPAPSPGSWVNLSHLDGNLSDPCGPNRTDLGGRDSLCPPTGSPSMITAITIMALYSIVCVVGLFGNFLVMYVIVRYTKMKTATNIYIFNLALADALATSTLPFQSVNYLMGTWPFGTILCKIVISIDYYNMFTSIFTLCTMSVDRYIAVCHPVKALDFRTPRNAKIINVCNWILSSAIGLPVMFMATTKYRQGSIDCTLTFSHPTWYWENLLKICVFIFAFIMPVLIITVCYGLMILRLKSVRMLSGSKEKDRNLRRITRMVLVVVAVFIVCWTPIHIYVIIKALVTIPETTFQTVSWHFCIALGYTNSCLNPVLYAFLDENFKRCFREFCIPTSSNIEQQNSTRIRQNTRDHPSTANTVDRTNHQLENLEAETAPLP
Protocol: as §1

KOR = KOR (Homo sapiens, UniProt P41145); assay: KOR calcium mobilization agonist/antagonist screen (CHO-RD-HGA16 cells); set-up: host or cells: CHO-RD-HGA16; conditions: single concentration; for Emax: CHO-RD-HGA16, agonist screen, control agonist U69,593; for KOR Calcium % U69, 593 Inhibition: antagonist screen, vs EC60 of U69,593
KOR, sequence (P41145 whole entry): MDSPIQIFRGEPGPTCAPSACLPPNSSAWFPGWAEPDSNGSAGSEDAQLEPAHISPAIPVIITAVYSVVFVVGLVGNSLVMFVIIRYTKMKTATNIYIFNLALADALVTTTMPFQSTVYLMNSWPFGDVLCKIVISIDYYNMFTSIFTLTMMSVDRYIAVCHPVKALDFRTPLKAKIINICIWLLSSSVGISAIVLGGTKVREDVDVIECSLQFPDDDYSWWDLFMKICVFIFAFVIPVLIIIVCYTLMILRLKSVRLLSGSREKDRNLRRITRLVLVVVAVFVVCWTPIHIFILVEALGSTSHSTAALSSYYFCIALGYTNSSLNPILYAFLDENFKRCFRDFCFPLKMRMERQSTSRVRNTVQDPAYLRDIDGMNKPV
Protocol: as §1

CaV 3.2 = biological target: T1, CaV 3.2 (Homo sapiens, UniProt O95180); assay: CaV 3.2 calcium assay in stable human CaV3.2-HEK293 cells; conditions: control agonist calcium chloride
T1 construct: expressed in transfected cells
T1 sequence (O95180 whole entry): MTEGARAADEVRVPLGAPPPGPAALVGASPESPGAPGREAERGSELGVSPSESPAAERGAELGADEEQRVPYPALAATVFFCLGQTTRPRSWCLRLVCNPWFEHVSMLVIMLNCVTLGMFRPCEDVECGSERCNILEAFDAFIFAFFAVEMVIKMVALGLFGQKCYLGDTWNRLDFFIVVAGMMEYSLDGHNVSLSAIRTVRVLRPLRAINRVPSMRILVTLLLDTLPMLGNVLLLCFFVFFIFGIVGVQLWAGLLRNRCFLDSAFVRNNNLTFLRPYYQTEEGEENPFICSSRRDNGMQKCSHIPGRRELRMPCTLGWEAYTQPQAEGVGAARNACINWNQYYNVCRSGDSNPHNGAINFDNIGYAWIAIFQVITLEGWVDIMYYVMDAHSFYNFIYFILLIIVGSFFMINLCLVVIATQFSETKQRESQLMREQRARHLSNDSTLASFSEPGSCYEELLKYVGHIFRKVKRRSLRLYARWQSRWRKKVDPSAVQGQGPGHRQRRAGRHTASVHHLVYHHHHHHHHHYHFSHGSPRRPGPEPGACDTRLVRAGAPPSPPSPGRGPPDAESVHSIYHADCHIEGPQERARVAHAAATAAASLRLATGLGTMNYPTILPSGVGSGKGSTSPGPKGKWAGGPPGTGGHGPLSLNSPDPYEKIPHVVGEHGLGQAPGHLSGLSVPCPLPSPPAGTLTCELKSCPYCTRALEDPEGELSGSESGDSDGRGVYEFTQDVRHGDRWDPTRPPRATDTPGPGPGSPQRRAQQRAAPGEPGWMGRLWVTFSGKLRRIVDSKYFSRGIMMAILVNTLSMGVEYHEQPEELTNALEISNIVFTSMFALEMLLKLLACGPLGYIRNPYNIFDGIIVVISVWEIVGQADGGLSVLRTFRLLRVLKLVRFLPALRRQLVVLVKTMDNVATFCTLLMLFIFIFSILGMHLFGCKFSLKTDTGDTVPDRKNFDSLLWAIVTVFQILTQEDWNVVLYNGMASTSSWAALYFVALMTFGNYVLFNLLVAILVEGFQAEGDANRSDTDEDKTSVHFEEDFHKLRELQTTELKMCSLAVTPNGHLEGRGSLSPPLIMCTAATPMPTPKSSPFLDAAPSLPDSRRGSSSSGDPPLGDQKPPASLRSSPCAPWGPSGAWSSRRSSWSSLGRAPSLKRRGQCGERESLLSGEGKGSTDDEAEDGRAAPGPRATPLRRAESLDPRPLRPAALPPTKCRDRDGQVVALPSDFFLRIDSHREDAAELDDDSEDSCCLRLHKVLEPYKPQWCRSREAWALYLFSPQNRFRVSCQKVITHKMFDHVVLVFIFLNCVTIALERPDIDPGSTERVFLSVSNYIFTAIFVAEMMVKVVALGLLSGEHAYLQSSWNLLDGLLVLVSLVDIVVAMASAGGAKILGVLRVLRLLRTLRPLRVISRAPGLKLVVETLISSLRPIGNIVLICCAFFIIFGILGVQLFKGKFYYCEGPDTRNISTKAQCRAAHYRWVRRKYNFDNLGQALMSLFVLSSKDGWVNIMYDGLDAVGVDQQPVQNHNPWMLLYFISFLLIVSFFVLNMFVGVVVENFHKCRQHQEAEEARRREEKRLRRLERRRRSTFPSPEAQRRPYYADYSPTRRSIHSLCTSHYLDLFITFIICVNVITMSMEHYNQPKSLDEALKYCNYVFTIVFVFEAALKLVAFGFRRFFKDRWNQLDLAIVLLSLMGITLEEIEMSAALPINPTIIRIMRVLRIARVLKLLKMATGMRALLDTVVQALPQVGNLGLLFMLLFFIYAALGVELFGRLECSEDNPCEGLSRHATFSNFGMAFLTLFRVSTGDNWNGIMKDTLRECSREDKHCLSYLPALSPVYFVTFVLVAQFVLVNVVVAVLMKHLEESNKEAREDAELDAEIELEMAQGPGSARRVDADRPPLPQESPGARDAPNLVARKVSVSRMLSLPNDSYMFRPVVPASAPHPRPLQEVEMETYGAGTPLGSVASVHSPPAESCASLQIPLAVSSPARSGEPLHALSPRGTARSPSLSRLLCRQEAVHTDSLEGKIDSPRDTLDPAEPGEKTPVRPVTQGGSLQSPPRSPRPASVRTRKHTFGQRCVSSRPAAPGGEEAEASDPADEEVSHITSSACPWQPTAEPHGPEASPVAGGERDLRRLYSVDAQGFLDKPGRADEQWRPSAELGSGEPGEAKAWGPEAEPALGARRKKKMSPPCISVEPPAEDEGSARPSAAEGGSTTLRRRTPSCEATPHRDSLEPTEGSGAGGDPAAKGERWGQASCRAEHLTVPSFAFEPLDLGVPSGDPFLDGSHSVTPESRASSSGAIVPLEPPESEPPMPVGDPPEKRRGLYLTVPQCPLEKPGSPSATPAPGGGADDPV
Protocol: as §1
Compounds were evaluated for activity at CaV 3.2 using stable human CaV3.2-HEK293 cells and the control agonist calcium chloride. The day before the assay, cells were plated into 96-well black-walled assay plates coated with poly-D-lysine in DMEM-F12 supplemented with 10% fetal bovine serum, 100 units penicillin/streptomycin, and 500 μM sodium pyruvate, and incubated at 37° C., 5% CO2 overnight. Prior to the assay, Calcium 5 dye (Molecular Devices) was reconstituted according to the manufacturer instructions. The reconstituted dye was diluted 1:10 in pre-warmed (37° C.) assay buffer (1×HBSS, […], […], pH 7.4 at 37° C.). The cells were incubated for 45 minutes at 37° C., 5% CO2 in 200 μL of the diluted Calcium 5 dye. Compounds were prepared as described above and the plate was read with a FLIPR Tetra (Molecular Devices). Calcium-mediated changes in fluorescence were monitored every 1 second over a 60 second time period, with the Tetra adding 25 μL of appropriate compound at the 10 second time point (excitation at 470-495 nm, detection at 515-575 nm). […]

human CXCR4 = biological target: T2, human CXCR4 (Homo sapiens, UniProt P61073); assay: CXCR4 β-arrestin recruitment assay (PathHunter); conditions: human CXCR4-C2Cl2 cells, relative to CXCL-12
T2 construct: host or cells: C2C12
T2 sequence (P61073 whole entry): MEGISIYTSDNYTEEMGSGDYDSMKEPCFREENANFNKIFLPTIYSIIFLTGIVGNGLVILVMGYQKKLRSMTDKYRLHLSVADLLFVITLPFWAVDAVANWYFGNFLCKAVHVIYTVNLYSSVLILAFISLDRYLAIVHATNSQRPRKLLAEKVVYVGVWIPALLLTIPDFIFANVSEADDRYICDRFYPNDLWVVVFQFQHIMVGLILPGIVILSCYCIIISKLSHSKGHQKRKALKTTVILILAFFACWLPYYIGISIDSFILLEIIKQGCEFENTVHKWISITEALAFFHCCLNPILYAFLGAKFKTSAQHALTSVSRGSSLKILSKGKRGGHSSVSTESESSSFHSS
Protocol: (§2) Compounds were evaluated for agonist activity using a β-arrestin recruitment assay based on β-galactosidase complementation (PathHunter, DiscoverX). Stable human ACKR3-β-arrestin-2-CHO cells (DiscoverX) were plated into 96-well white-walled assay plates at 15,000 cells/well in Cell Plating Reagent 2 (DiscoveRx) and incubated at 37° C., 5% CO2 overnight. The next day, test compounds were prepared at 10× concentration in DPBS/1% DMSO and 10 μL was added to the cells. CXCL-12 was included as a positive agonist control. Following a 1.5 hr incubation at 37° C., 55 μL of detection reagent (prepared according to the manufacturer's specifications) was added to each well. The plate was incubated at room temperature for 1 hr, after which luminescence was measured at 1 sec/well using an EnSpire multimode plate reader (PerkinElmer). Relative luminescence units (RLU) were plotted against the log of compound concentration and data were fit to a three-parameter logistic curve to generate EC50 values (GraphPad Prism). EC50 and % Emax values are reported as means±SEM and are the result of at least two independent experiments performed in duplicate. The CXCR4 assay was run similarly except that human CXCR4-C2Cl2 cells (DiscoverX) were plated at 20,000 cells/well in Cell Plating Reagent 9. The next day, the media was removed and cells were incubated with Cell Plating Reagent 4 for 3 hrs, after which the assay was conducted as described above.

ACKR3 = ACKR3 (Homo sapiens, UniProt P25106); assay: ACKR3 β-arrestin recruitment assay (PathHunter, β-galactosidase complementation); conditions: for EC50: stable human ACKR3-β-arrestin-2-CHO cells, mean ± SEM, at least two independent experiments in duplicate; for Emax: read-out: ACKR3 β-arrestin % CXCL12 Emax ± SEM
ACKR3, sequence (P25106 whole entry): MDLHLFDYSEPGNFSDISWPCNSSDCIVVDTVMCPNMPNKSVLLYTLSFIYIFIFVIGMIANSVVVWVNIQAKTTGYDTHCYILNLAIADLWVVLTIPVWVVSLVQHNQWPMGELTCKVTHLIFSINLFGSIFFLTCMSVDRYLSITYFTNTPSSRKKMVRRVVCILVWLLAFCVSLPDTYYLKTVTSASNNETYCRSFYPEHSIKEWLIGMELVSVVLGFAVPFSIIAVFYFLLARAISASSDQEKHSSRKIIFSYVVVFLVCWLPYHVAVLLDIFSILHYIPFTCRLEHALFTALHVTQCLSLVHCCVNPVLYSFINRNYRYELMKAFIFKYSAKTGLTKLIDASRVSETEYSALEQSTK
Protocol: as §2

Row | Emax (DOR) | DOR Calcium % DPDPE Inhibition (DOR) | Emax (MOR) | MOR Calcium % DAMGO Inhibition (MOR) | Emax (KOR) | KOR Calcium % U69, 593 Inhibition (KOR) | CaV 3.2 % CaCl2 Inhibition (CaV 3.2) | CXCR4 β-arrestin % CXCL-12Emax (n = 2) (human CXCR4) | EC50 (ACKR3) | Emax (ACKR3) | SMILES
1 | 0% | 6% | 0% | 2% | 0% | 8% | −2% | 8% | > 10 µM |  | O=C(c1cc2ccccc2[nH]1)C1CCN(Cc2ccccc2)CC1 [WW-18, (1-Benzylpiperidin-4-yl)(1H-indol-2-yl)methanone]
2 | 0% | 3% | 0% | 7% | 20% | 18% | 2% | 7% | > 10 µM |  | CCC1CN2CC[C@H]1C(=O)c1[nH]c3ccccc3c1C2 (stereo partly drawn) [WW-15, (5R)-4-ethyl-1,4,5,7-tetrahydro-2,5-ethanoazocino[4,3-b]indol-6(3H)-one]
3 | 5% | 3% | 1% | 3% | 3% | 4% | −14% | 4% | > 10 µM |  | C/C=C1/CNCC[C@H]1C(=O)c1cc2ccccc2[nH]1 [WW-8, (3E,4R)-(3-ethylidenepiperidin-4-yl)(1H-indol-2-yl)methanone]
4 | 0% | 18% | 0% | 5% | 1% | 22% | 5% | 4% | > 10 µM |  | C/C=C1/CN2CC[C@H]1C(=O)c1[nH]c3ccc(Cl)cc3c1C2 [WW-2, (4E,5R)-10-chloro-4-ethylidene-1,4,5,7-tetrahydro-2,5-ethanoazocino[4,3-b]indol-6(3H)-one]
5 | 0% | 1% | 0% | 11% | 0% | 22% | 19% | 7% | > 10 µM |  | CCOC(=O)c1[nH]c2ccccc2c1CN1CCC(C(=O)OC)CC1 [WW-6, ethyl 3-{[4-(methoxycarbonyl)piperidin-1-yl]methyl}-1H-indole-2-carboxylate]
6 | 0% | 9% | 1% | 1% | 1% | 14% | 1% | 1% | > 10 µM |  | C/C=C1/CN2CC[C@H]1C(=O)c1[nH]c3cc(F)ccc3c1C2 [WW-3, (4E,5R)-4-ethylidene-9-fluoro-1,4,5,7-tetrahydro-2,5-ethanoazocino[4,3-b]indol-6(3H)-one]
7 | 0% | 18% | 0% | 15% | 2% | 23% | 21% | 6% | 4.62 ± 0.41 µM | 81 ± 5% | C=C1c2[nH]c3ccccc3c2CN2CC[C@@H]1/C(=C\C)C2 [WW-16, (4E,5R)-4-ethylidene-6-methylidene-1,3,4,5,6,7-hexahydro-2,5-ethanoazocino[4,3-b]indole]
8 | 5% | 0% | 1% | 1% | 3% | 6% | 5% | 8% | 3.28 ± 0.39 µM | 84 ± 6% | C/C=C1/CN(CCC)CC[C@H]1C(=O)c1cc2ccccc2[nH]1 [WW-14, [(3E,4R)-3-ethylidene-1-propylpiperidin-4-yl](1H-indol-2-yl)methanone]
9 | 0% | 11% | 1% | 4% | 1% | 5% | −11% | 7% | 4.81 ± 0.45 µM | 146 ± 6% | CCOC(=O)C1CCN(Cc2c[nH]c3ccccc23)CC1 [WW-17, ethyl 1-(1H-indol-3-ylmethyl)piperidine-4-carboxylate]
